Results reported in patent publication US20180296532A1, “RNA-Focused Small Molecules for Inhibiting RNA Toxicity in Myotonic Dystrophy” (The Scripps Research Institute, priority 2015, published 2018).

Key:
r(CUG)960 = assay: Competitive ChemCLIP (C-ChemCLIP) target pull-down with 2H-4-CA-Biotin, qRT-PCR; assay type: cell-based; conditions: HeLa cells with DM1 mini-gene; 100 nM 2H-4-CA-Biotin and 10 μM compound
Procedure: The biological targets of Formula (I) compounds were further investigated by using Competitive ChemCLIP (C-ChemCLIP) (FIG. 4B).(48, 49) In ChemCLIP, an RNA-binding compound is appended with: (i) a reactive module (chlorambucil; CA) that cross-links to the RNAs that the small molecule binds in cellulo; and (ii) a biotin moiety for facile pull-down and isolation of those targets.^(49) The pulled-down fraction is then analyzed by qRT-PCR. In this particular application, we used C-ChemCLIP using a previously studied compound, 2H-4-CA-Biotin, that binds and cross-links to r(CUG)^exp in cellulo.^(49) If exemplary Formula (I) compounds also engage r(CUG)^exp in cellulo, then the amount of the RNA pulled down by 2H-4-CA-Biotin should decrease as a function of 1, 16, or 17 concentration.
Cells were transfected with 10 μg of plasmid expressing the DM1 mini-gene using Lipofectamine 2000 (Invitrogen) according to the manufacturer's standard protocol. […] After 20-24 h, the cells were lysed and total RNA was harvested using Trizol reagent (Ambion) according to the manufacturer's protocol. Approximately 30 μg of total RNA was used for pull-down using 15 nmoles of streptavidin-agarose beads (Sigma-Aldrich; 15 μg/mL biotin loading) as previously described.^(49) The lysate was incubated with the beads for 1 h at room temperature with shaking at 500 rpm. The solution was removed, and the beads were washed with 500 μL aliquots of 1×PBS. Bound material was released from the beads by heating at 95° C. for 5 min in 30 μL of 95% formamide containing 10 mM EDTA, pH 8.2.
Reverse transcription reactions were carried out using qScript cDNA synthesis kit by adding ˜60 ng of either total RNA or captured RNA according to the manufacturer's protocol. Then, 30% of each cDNA sample was used for quantitative real time PCR (qPCR) analysis for each primer set. qPCR was performed on a 7900HT Fast Real-Time PCR System (Applied Biosystems) using Power SYBR Master Mix (Life Technologies). The PCR primers for the DM1/DMPK mini-gene mRNA were 5′-CGTGCAAGCGCCCAG (forward) and 5′-[…] (reverse). The PCR primers for 18S ribosomal RNA were 5′-[…] (forward) and 5′-[…] (reverse).
Cells were transfected with 10 μg of plasmid expressing the DM1 mini-gene using Lipofectamine 2000 (Invitrogen) according to the manufacturer's standard protocol. […]
Reverse transcription reactions were carried out using qScript cDNA synthesis kit by adding 150 ng of either total RNA or captured RNA according to the manufacturer's protocol. Then, 30% of each cDNA sample was used for quantitative real time PCR (qPCR) analysis for each primer set. qPCR was performed on a 7900HT Fast Real-Time PCR System (Applied Biosystems) using Power SYBR Master Mix (Life Technologies). […]

r(CUG)109 = assay: Competition dialysis with various RNAs and MBNL1; assay type: binding; conditions: for loading onto r(CUG)109: 5 μM small molecule
Procedure: The selectivities of compounds 1, 16, and 17 were measured by competition dialysis using various RNA and protein targets. RNA targets included a mimic of the human rRNA A-site, the MBNL1-binding site in the cTNT pre-mRNA, an RNA with GC base pairs, and RNAs with different numbers of r(CUG) repeats (r(CUG)1×2, r(CUG)6×2, and r(CUG)109, an expanded repeat of a length causative of disease^(23)) (FIG. 3A). […] Binding to MBNL1 was also evaluated to assess the propensity of the compounds to bind MBNL1 over r(CUG)^exp.
Competition dialysis was performed using Pierce Slide-A-Lyzer MINI dialyzer units with a 3,500 Da molecular weight cutoff. The RNAs evaluated were folded by heating an 8 μM solution of RNA in 199 μL 1× Dialysis Buffer (8 mM NaH2PO4, pH 7.2, 185 mM NaCl and 1 mM EDTA) at 65° C. for 5 min followed by slowly cooling to room temperature on the bench top. Then, 1 μL of 1 mM small molecule was added (5 μM final concentration), and the solution was transferred to the dialyzer units (100 μL samples in duplicate). The dialyzer units were then placed in 150 mL of 5 μM small molecule in 1× Dialysis Buffer and stirred at 200 rpm at 4° C. for 48 h. Following equilibration, 90 μL of each sample was transferred to a microcentrifuge tube and treated with 10 μL of 10% SDS to dissociate the ligand. The total ligand concentration (Ct) within each dialysis unit was quantified spectrophotometrically using the appropriate absorbance wavelength and extinction coefficient for each compound. […] The bound ligand concentration (Cb) was then determined using equation 1: […]
where Cb, Ct, and Cf are concentrations of bound, total, and free ligand, respectively.

SMILES | amount of r(CUG)^exp pulled down by 2H-4-CA-Biotin (r(CUG)960) | selectivity of binding for r(CUG) repeat RNAs versus other RNAs and MBNL1 (r(CUG)109; targets at 8 μM) | loading onto r(CUG)109 (r(CUG)109; targets at 8 μM) | loading on r(CUG)109 relative to r(CUG)6×2 (r(CUG)109) [fold]
N=C(N)Nc1ccc2nc(-c3ccc(-c4nc5ccc(NC(=N)N)cc5[nH]4)cc3)[nH]c2c1 [Compound 2GN8] | reduced by half | selectively binds r(CUG)^exp containing RNAs | – | –
O=C(Nc1ccc(-c2nc3cc(NC(=O)c4ccco4)ccc3[nH]2)cc1)c1ccco1 [Compound 16] | significantly reduced | – | lowest loading | –
O=C(Nc1ccc(-c2nc3ccccc3[nH]2)cc1)c1ccc(-c2ccc(Cl)cc2)o1 [Compound 17] | significantly reduced | – | highest loading | ~14
